This test concerns rat pituitary cells. Description: growth hormone secretion in rat pituitary cell cultures (GH release, RIA). The class given is cell-based. To be noted: GH release from cultured rat anterior pituitary cells, 15 min incubation at 37° C., rat GH measured by double antibody RIA, read-out: ED50 (the source's name). As to the method:
The bioassay employed for the determination of growth hormone secretion in rat pituitary cell cultures has been previously described--Cheng, K.; Chan, W. W.-S; Barreto, A.; Convey, E. M.; Smith, R. G. Endocrinology 124: 2791-2798 (1989)--and is summarized here: The Wistar male rats (150-200 grams) were obtained from Charles River Laboratories (Wilmington, Mass). Rats were maintained at a constant temperature (25° C.) on a 14-hr light, 10-hr dark cycle. Rat chow and water were available ad libitum. The animals were sacrificed by decapitation and anterior lobes of the pituitary quickly removed. Rat pituitary cells were isolated from pituitaries by enzymatic digestion with 0.2% collagenase and 0.2% hyaluronidase in Hank's Balanced Salt Solution. For culture, the cells were suspended in culture medium and adjusted to 1.5×10^5 cells/ml, and 1.0 ml of this suspension was placed in each well of a 24-well tray (Costar, Cambridge, Mass.). Cells were maintained in a humidified 5% CO2 -95% air atmosphere at 37° C. for 3 to 4 days. The culture medium consisted of DMEM containing 0.37% NaHCO3, 10% horse serum, 2.5% fetal bovine serum, 1% non-essential amino acids, 1% glutamine, 1% nystatin, and 0.1% gentamycin. On the day of an experiment, cells were washed twice 11/2 hrs prior to and once more immediately before the start of the experiment with the above culture medium containing 25 mM HEPES, pH 7.4. GH release was initiated by adding 1 ml of fresh medium containing test agents to each well in quadruplicate. Incubation was carded out at 37° C. for 15 min. After incubation, medium was removed and centrifuged at 2,000×g for 15 min to remove any cellular material. The supernatant fluid was removed and assayed for GH content. Rat GH in culture medium was measured by a double antibody RIA procedure using materials obtained from Dr. A. F. Parlow (Harbor-UCLA medical Center, Torrance, Calif.) and expressed in terms of the standard rat GH RP-2. ED50 values for test compounds were computed by fitting a four-parameter logistic function to the dose-response curve. Least squares estimates of the four-parameter logistic function coefficients and their variances were derived using the iterative algorithm described by Bates and Watts.

The record followed here is patent US5726319A, “Biphenyl substituted dipeptide analogs promote release of growth hormone” (Merck & Co., Inc., priority 1995, dated 1998).

Structures are written as SMILES. Counter-ions that a name gives are not always drawn. Like-named read-outs stand apart in the source and are kept apart here.

Turning to `CC(C)(N)C(=O)N[C@H](Cc1c[nH]c2ccccc12)C(=O)NCc1ccc(-c2ccccc2NC(=O)NCCO)cc1` [Example 16, (R)-α-[(2-Amino-2-methyl-1-oxopropyl)amino]-N-[[2'-[[(2-hydroxyethylamino)carbonyl]amino][1,1'-biphenyl]-4-yl]-methyl]-1H-indole-3-propanamide, trifluoroacetate], under “0.25 h”, the EC50 is above 500 nM.

For the molecule `CC(C)(N)C(=O)N[C@H](CCc1ccccc1)C(=O)N(Cc1ccc(-c2ccccc2-c2nnn[nH]2)cc1)c1ccc(O)cc1.O=C(O)C(F)(F)F` [Example 31, (R)-α-[(2-Amino-2-methyl-1-oxypropyl)amino]-N-(4-hydroxyphenyl)-N-[[2'-(1H-tetrazol-5-yl)-[1,1'-biphenyl]-4-yl]methyl]benzene-butanamide, trifluoroacetate], the EC50 was above 500 nM.

Turning to `CN(Cc1ccc(-c2ccccc2-c2nnn[nH]2)cc1)C(=O)[C@@H](CCc1ccccc1)NC(=O)C(C)(C)N.O=C(O)C(F)(F)F` [Example 7a, (R)-α-[(2-Amino-2-methyl-1-oxypropyl)amino]-N-methyl-N-[[2'-(1H-tetrazol-5-yl)-[1,1'-biphenyl]-4-yl]methyl]benzenebutanamide trifluoroacetate], the EC50 was below 500 nM.

Regarding `CC(C)(N)CC(=O)N[C@H](Cc1ccccc1)C(=O)NCc1ccc(-c2ccccc2-c2nnn[nH]2)cc1` [Example 2, (R)-α-[(3-Amino-3-methyl-1-oxobutyl)amino]-N-[[2'-(1H-tetrazol-5-yl)[1,1'-biphenyl]-4-yl]methyl]benzene-propanamide, trifluoroacetate], the EC50 (0.25 h) is below 500 nM.

Consider `CCN(Cc1ccc(-c2ccccc2CNC(=O)NC)cc1)C(=O)[C@@H](CCc1ccccc1)NC(=O)C(C)(C)N.O=C(O)C(F)(F)F` [Example 20, (R)-α-[(2-Amino-2-methyl-1-oxypropyl)amino]-N-ethyl-N-[[(2'-[((methylamino)carbonyl)aminomethyl])-[1,1'-biphenyl]-4-yl]methyl]benzenebutanamide,trifluoroacetate], for which the EC50 was below 500 nM.

As to `CC(C)(N)CC(=O)N[C@H](COCc1ccccc1)C(=O)NCc1ccc(-c2ccccc2-c2nnn[nH]2)cc1.O=C(O)C(F)(F)F` [Example 28, (R)-α-[(3-Amino-3-methyl-1-oxybutyl)amino]-N-[[2'-(1H-tetrazol-5-yl)-[1,1'-biphenyl]-4-yl]methyl]-3-[(phenylmethyl)oxy]propanamide, trifluoracetate], the EC50 was above 500 nM.

With `CNC(=O)Nc1ccccc1-c1ccc(CNC(=O)[C@@H](Cc2c[nH]c3ccccc23)NC(=O)C(C)(C)N)cc1` [Example 6, (R)-α-[(2-Amino-2-methyl-1-oxopropyl)amino]-N-[[2'-[[(methylamino)carbonyl]amino][1,1'-biphenyl]-4-yl]methyl]-1H-indole-3-propanamide, trifluoroacetate], where the note is “0.25 h”, the EC50 is above 500 nM.

Regarding `CCCN(Cc1ccc(-c2ccccc2-c2nnn[nH]2)cc1)C(=O)[C@@H](CCc1ccccc1)NC(=O)C(C)(C)N.O=C(O)C(F)(F)F` [Example 22, (R)-α-[(2-Amino-2-methyl-1-oxypropyl)amino]-N-[[2'-(1H-tetrazol-5-yl)-[1,1'-biphenyl]-4-yl]methyl]-N-(propyl)benzenebutanamide, trifluoroacetate], the EC50 was below 500 nM.

Regarding `CCN(Cc1ccc(-c2ccccc2-c2nnn[nH]2)cc1)C(=O)[C@@H](CCc1ccccc1)NC(=O)C(C)(C)N.O=C(O)C(F)(F)F` [Example 18, (R)-α-[(2-Amino-2-methyl-1-oxypropyl)amino]-N-ethyl-N-[[2'-(1H-tetrazol-5-yl)-[1,1'-biphenyl]-4-yl]methyl]benzenebutanamide, trifluoroacetate], the EC50 is above 500 nM.

`CN(Cc1ccc(-c2ccccc2-c2nnn[nH]2)cc1)C(=O)[C@@H](CCc1ccccc1)NC(=O)CC(C)(C)N.O=C(O)C(F)(F)F` [Example 8a, (R)-α-[(3-Amino-3-methyl-1-oxybutyl)amino]-N-methyl-N-[[2'-(1H-tetrazol-5-yl)-[1,1'-biphenyl]-4-yl]methyl]benzenebutanamide, trifluoroacetate]: the EC50 was above 500 nM.
